Test results from PubChem BioAssay (NCI).
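Five concentrations, 48 hours, 96-well plates. The concentration for 50% growth inhibition is given as GI50. The concentration for full growth arrest is given as TGI.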

Assays:
Assay in all cases: DTP human tumour cell line panel, 48 h
SNB-19 CNS = test system: SNB-19 CNS
IGROV1 ovarian = test system: IGROV1 ovarian
MOLT-4 leukemia = test system: MOLT-4 leukemia
OVCAR-4 ovarian = test system: OVCAR-4 ovarian
HS 578T breast = test system: HS 578T breast
TK-10 renal = test system: TK-10 renal
T-47D breast = test system: T-47D breast
UO-31 renal = test system: UO-31 renal
LOX IMVI melanoma = test system: LOX IMVI melanoma
UACC-257 melanoma = test system: UACC-257 melanoma
MCF7 breast = test system: MCF7 breast
K-562 leukemia = test system: K-562 leukemia
NCI/ADR-RES ovarian = test system: NCI/ADR-RES ovarian
RXF 393 renal = test system: RXF 393 renal
MDA-MB-468 breast = test system: MDA-MB-468 breast
HT29 colon = test system: HT29 colon
UACC-62 melanoma = test system: UACC-62 melanoma
CAKI-1 renal = test system: CAKI-1 renal
EKVX NSCLC = test system: EKVX NSCLC
SK-MEL-28 melanoma = test system: SK-MEL-28 melanoma
NCI-H23 lung = test system: NCI-H23 lung
HOP-62 NSCLC = test system: HOP-62 NSCLC
HCT-116 colon = test system: HCT-116 colon
SK-OV-3 ovarian = test system: SK-OV-3 ovarian
BT-549 breast = test system: BT-549 breast
HOP-92 NSCLC = test system: HOP-92 NSCLC
OVCAR-3 ovarian = test system: OVCAR-3 ovarian
A549 NSCLC = test system: A549 NSCLC
A498 renal = test system: A498 renal
SK-MEL-2 melanoma = test system: SK-MEL-2 melanoma
NCI-H460 lung = test system: NCI-H460 lung
HCT-15 colon = test system: HCT-15 colon
SF-539 CNS = test system: SF-539 CNS
SK-MEL-5 melanoma = test system: SK-MEL-5 melanoma
U251 CNS = test system: U251 CNS
OVCAR-5 ovarian = test system: OVCAR-5 ovarian
SR leukemia = test system: SR leukemia
M14 melanoma = test system: M14 melanoma
SN12C renal = test system: SN12C renal
CCRF-CEM leukemia = test system: CCRF-CEM leukemia
PC-3 prostate = test system: PC-3 prostate
SF-268 CNS = test system: SF-268 CNS
ACHN renal = test system: ACHN renal
SW-620 colon = test system: SW-620 colon
HL-60(TB) leukemia = test system: HL-60(TB) leukemia
OVCAR-8 ovarian = test system: OVCAR-8 ovarian
MDA-MB-435 = test system: MDA-MB-435
SNB-75 CNS = test system: SNB-75 CNS
MDA-MB-231 breast = test system: MDA-MB-231 breast
NCI-H522 lung = test system: NCI-H522 lung
MALME-3M melanoma = test system: MALME-3M melanoma
SF-295 CNS = test system: SF-295 CNS
786-0 renal = test system: 786-0 renal
KM12 colon = test system: KM12 colon
HCC-2998 colon = test system: HCC-2998 colon
COLO 205 colon = test system: COLO 205 colon
DU-145 prostate = test system: DU-145 prostate
NCI-H226 lung = test system: NCI-H226 lung
RPMI-8226 leukemia = test system: RPMI-8226 leukemia

## CC(C)NC(=O)c1cc(-c2ccc(NC(=O)Nc3ccc(N4CCN(C)CC4)c(C(F)(F)F)c3)cc2)nc2cccnc12
SNB-19 CNS
  GI50: 2090 nM
  TGI: 4750 nM
IGROV1 ovarian
  GI50: 1740 nM
  TGI: 3550 nM
MOLT-4 leukemia
  GI50: 1050 nM
  TGI: 4190 nM
OVCAR-4 ovarian
  GI50: 2210 nM
  TGI: 5180 nM
HS 578T breast
  GI50: 1360 nM
  TGI: 7500 nM
TK-10 renal
  GI50: 2240 nM
  TGI: 4180 nM
T-47D breast
  GI50: 1710 nM
  TGI: 31000 nM
UO-31 renal
  GI50: 1760 nM
  TGI: 3390 nM
LOX IMVI melanoma
  GI50: 1950 nM
  TGI: 3620 nM
UACC-257 melanoma
  GI50: 2090 nM
  TGI: 4200 nM
MCF7 breast
  GI50: 397 nM
  TGI: 2790 nM
K-562 leukemia
  GI50: 2790 nM
  TGI: 33400 nM
NCI/ADR-RES ovarian
  GI50: 3290 nM
  TGI: 9350 nM
RXF 393 renal
  GI50: 1070 nM
  TGI: 2890 nM
MDA-MB-468 breast
  GI50: 801 nM
  TGI: 2290 nM
HT29 colon
  GI50: 1950 nM
  TGI: 3980 nM
UACC-62 melanoma
  GI50: 2110 nM
  TGI: 4130 nM
CAKI-1 renal
  GI50: 1960 nM
  TGI: 3740 nM
EKVX NSCLC
  GI50: 2190 nM
  TGI: 4300 nM
SK-MEL-28 melanoma
  GI50: 1980 nM
  TGI: 3680 nM
NCI-H23 lung
  GI50: 2230 nM
  TGI: 4440 nM
HOP-62 NSCLC
  GI50: 2240 nM
  TGI: 4730 nM
HCT-116 colon
  GI50: 2060 nM
  TGI: 3920 nM
SK-OV-3 ovarian
  GI50: 4850 nM
  TGI: 16200 nM
BT-549 breast
  GI50: 1370 nM
  TGI: 6310 nM
HOP-92 NSCLC
  GI50: 980 nM
  TGI: 2940 nM
OVCAR-3 ovarian
  GI50: 1910 nM
  TGI: 3940 nM
A549 NSCLC
  GI50: 6500 nM
  TGI: 12800 nM
A498 renal
  GI50: 13500 nM
  TGI: 19300 nM
SK-MEL-2 melanoma
  GI50: 2720 nM
  TGI: 6500 nM
NCI-H460 lung
  GI50: 2110 nM
  TGI: 4040 nM
HCT-15 colon
  GI50: 2100 nM
  TGI: 4200 nM
SF-539 CNS
  GI50: 1510 nM
  TGI: 3060 nM
SK-MEL-5 melanoma
  GI50: 2070 nM
  TGI: 3760 nM
U251 CNS
  GI50: 1740 nM
  TGI: 3550 nM
OVCAR-5 ovarian
  GI50: 1980 nM
  TGI: 3810 nM
SR leukemia
  GI50: 2290 nM
  TGI: 7450 nM
M14 melanoma
  GI50: 2000 nM
  TGI: 4130 nM
SN12C renal
  GI50: 1810 nM
  TGI: 3530 nM
CCRF-CEM leukemia
  GI50: 539 nM
  TGI: 3820 nM
PC-3 prostate
  GI50: 1820 nM
  TGI: 4810 nM
SF-268 CNS
  GI50: 6090 nM
  TGI: 16800 nM
ACHN renal
  GI50: 2030 nM
  TGI: 3740 nM
SW-620 colon
  GI50: 1790 nM
  TGI: 3740 nM
HL-60(TB) leukemia
  GI50: 572 nM
  TGI: 3180 nM
OVCAR-8 ovarian
  GI50: 2160 nM
  TGI: 4810 nM
MDA-MB-435
  GI50: 1940 nM
  TGI: 3880 nM
SNB-75 CNS
  GI50: 657 nM
  TGI: 4940 nM
MDA-MB-231 breast
  GI50: 820 nM
  TGI: 2030 nM
NCI-H522 lung
  GI50: 2010 nM
  TGI: 4020 nM
MALME-3M melanoma
  GI50: 1650 nM
  TGI: 3320 nM
SF-295 CNS
  GI50: 1830 nM
  TGI: 3570 nM
786-0 renal
  GI50: 1650 nM
  TGI: 3340 nM
KM12 colon
  GI50: 2430 nM
  TGI: 5120 nM
HCC-2998 colon
  GI50: 2090 nM
  TGI: 3960 nM
COLO 205 colon
  GI50: 2370 nM
  TGI: 5560 nM
DU-145 prostate
  GI50: 2180 nM
  TGI: 4150 nM
NCI-H226 lung
  GI50: 6130 nM
  TGI: 14800 nM
RPMI-8226 leukemia
  GI50: 2000 nM
  TGI: 7820 nM

## CC[C@]12C=CCN3CC[C@@]4(c5ccc(OC)cc5N(C)[C@H]4[C@@](O)(C(=O)OC)[C@@H]1OC(=O)CCCC[P+](c1ccc(C)cc1)(c1ccc(C)cc1)c1ccc(C)cc1)[C@@H]32
SNB-19 CNS
  GI50: 342 nM
  TGI: 1320 nM
IGROV1 ovarian
  GI50: 351 nM
  TGI: 1150 nM
MOLT-4 leukemia
  GI50: 451 nM
  TGI: 1780 nM
OVCAR-4 ovarian
  GI50: 636 nM
  TGI: 3770 nM
TK-10 renal
  GI50: 1040 nM
  TGI: 2440 nM
T-47D breast
  GI50: 305 nM
  TGI: 1960 nM
UO-31 renal
  GI50: 2040 nM
  TGI: 7110 nM
LOX IMVI melanoma
  GI50: 541 nM
  TGI: 1640 nM
UACC-257 melanoma
  GI50: 562 nM
  TGI: 1900 nM
MCF7 breast
  GI50: 278 nM
  TGI: 1150 nM
K-562 leukemia
  GI50: 300 nM
  TGI: 1870 nM
NCI/ADR-RES ovarian
  GI50: 12000 nM
  TGI: 34400 nM
RXF 393 renal
  GI50: 329 nM
  TGI: 1240 nM
MDA-MB-468 breast
  GI50: 150 nM
  TGI: 476 nM
HT29 colon
  GI50: 268 nM
  TGI: 783 nM
UACC-62 melanoma
  GI50: 406 nM
  TGI: 1180 nM
CAKI-1 renal
  GI50: 2850 nM
  TGI: 7150 nM
EKVX NSCLC
  GI50: 680 nM
  TGI: 2590 nM
SK-MEL-28 melanoma
  GI50: 437 nM
  TGI: 1600 nM
NCI-H23 lung
  GI50: 512 nM
  TGI: 1500 nM
HOP-62 NSCLC
  GI50: 731 nM
  TGI: 2000 nM
HCT-116 colon
  GI50: 342 nM
  TGI: 1460 nM
SK-OV-3 ovarian
  GI50: 535 nM
  TGI: 1390 nM
BT-549 breast
  GI50: 389 nM
  TGI: 1150 nM
HOP-92 NSCLC
  GI50: 295 nM
  TGI: 1160 nM
OVCAR-3 ovarian
  GI50: 425 nM
  TGI: 1560 nM
A549 NSCLC
  GI50: 632 nM
  TGI: 2760 nM
A498 renal
  GI50: 2090 nM
  TGI: 5240 nM
NCI-H460 lung
  GI50: 498 nM
  TGI: 1710 nM
HCT-15 colon
  GI50: 2020 nM
  TGI: 4350 nM
SF-539 CNS
  GI50: 588 nM
  TGI: 1620 nM
SK-MEL-5 melanoma
  GI50: 590 nM
  TGI: 1240 nM
U251 CNS
  GI50: 332 nM
  TGI: 1410 nM
OVCAR-5 ovarian
  GI50: 592 nM
  TGI: 1530 nM
SR leukemia
  GI50: 365 nM
  TGI: 1500 nM
M14 melanoma
  GI50: 558 nM
  TGI: 1670 nM
SN12C renal
  GI50: 410 nM
  TGI: 1380 nM
CCRF-CEM leukemia
  GI50: 476 nM
  TGI: 2060 nM
PC-3 prostate
  GI50: 313 nM
  TGI: 1400 nM
SF-268 CNS
  GI50: 692 nM
  TGI: 2110 nM
ACHN renal
  GI50: 1800 nM
  TGI: 4590 nM
SW-620 colon
  GI50: 601 nM
  TGI: 1960 nM
HL-60(TB) leukemia
  GI50: 191 nM
  TGI: 560 nM
OVCAR-8 ovarian
  GI50: 1130 nM
  TGI: 2490 nM
MDA-MB-435
  GI50: 472 nM
  TGI: 1520 nM
SNB-75 CNS
  GI50: 242 nM
  TGI: 854 nM
MDA-MB-231 breast
  GI50: 238 nM
  TGI: 654 nM
NCI-H522 lung
  GI50: 296 nM
  TGI: 1060 nM
MALME-3M melanoma
  GI50: 482 nM
  TGI: 1100 nM
SF-295 CNS
  GI50: 691 nM
  TGI: 1870 nM
786-0 renal
  GI50: 902 nM
  TGI: 2370 nM
KM12 colon
  GI50: 431 nM
  TGI: 1480 nM
HCC-2998 colon
  GI50: 416 nM
  TGI: 1510 nM
COLO 205 colon
  GI50: 200 nM
  TGI: 384 nM
DU-145 prostate
  GI50: 728 nM
  TGI: 4310 nM
NCI-H226 lung
  GI50: 336 nM
  TGI: 1450 nM
RPMI-8226 leukemia
  GI50: 202 nM
  TGI: 1470 nM
